What is called pIC50 is the IC50 on a negative log10 scale, so that one unit is a factor of ten.

Data set [1] is described as follows: Hepatocyte Stability Assay (rat hepatocytes). The following applies: cryopreserved hepatocytes, read-out: Rat Heps CLint. It is filed as in vitro ADME. The procedure:
(§1) 10 mM stock solutions of test compound and positive control are prepared in DMSO. Stock solutions are diluted to 100 μM by combining 198 μL of 50% acetonitrile/50% water and 2 μL of 10 mM stock solution. Verapamil is used as positive control in the assay. Vials of cryopreserved hepatocytes are thawed in a 37° C. water bath with gently shaking. The contents are poured into the 50 mL thawing medium conical tube. Vials are centrifuged at 100 g for 10 minutes at room temperature. Thawing medium is aspirated and hepatocytes are re-suspended with serum-free incubation medium to yield ˜1.5×10^6 cells/mL. Cell viability and density are counted using a Trypan Blue exclusion, and then cells are diluted with serum-free incubation medium to a working cell density of 0.5×10^6 viable cells/mL. A portion of the hepatocytes at 0.5×10^6 viable cells/mL are boiled for 5 min prior to adding to the plate as negative control to eliminate the enzymatic activity so that little or no substrate turnover should be observed. Aliquots of 198 μL hepatocytes are dispensed into each well of a 96-well non-coated plate. The plate is placed in the incubator for approximately 10 minutes. Aliquots of 2 μL of the 100 μM test compound and 2 μL positive control are added into respective wells of a non-coated 96-well plate to start the reaction. The final concentration of test compound is 1 μM. […]

Data set [2] is described as follows: Hepatocyte Stability Assay (human hepatocytes). The format is in vitro ADME. The settings on record: cryopreserved hepatocytes, read-out: Human Heps CLint. As to the method: as §1
Another data set addresses T1, TYK2 (Homo sapiens, UniProt P29597).
T1 construct: made in house; host or cells: E. coli (BL21-derived, T7 phage display) or HEK-293
Briefly: JAK Family Selectivity Assay (TYK2 vs JAK2 binding affinity). The following applies: selectivity over JAK2. As to the method:
(§2) Provided compounds are evaluated for selectivity by comparing their JAK2 binding affinity (Kd) in the above JAK2 Binding Assay with their binding affinity (Kd) for one or more other kinases. Binding affinity for other kinases is determined as follows: Kinase-tagged T7 phage strains are prepared in an E. coli host derived from the BL21 strain. E. coli are grown to log-phase and infected with T7 phage and incubated with shaking at 32° C. until lysis. The lysates are centrifuged and filtered to remove cell debris. The remaining kinases are produced in HEK-293 cells and subsequently tagged with DNA for qPCR detection. Streptavidin-coated magnetic beads are treated with biotinylated small molecule ligands for 30 minutes at room temperature to generate affinity resins for kinase assays. The liganded beads are blocked with excess biotin and washed with blocking buffer (SeaBlock (Pierce), 1% BSA, 0.05% Tween 20, 1 mM DTT) to remove unbound ligand and to reduce non-specific binding. Binding reactions are assembled by combining kinases, liganded affinity beads, and test compounds in 1× binding buffer (20% SeaBlock, 0.17×PBS, 0.05% Tween 20, 6 mM DTT). Test compounds are prepared as 111× stocks in 100% DMSO. Kds are determined using an 11-point 3-fold compound dilution series with three DMSO control points. […] The kinase concentration in the eluates is measured by qPCR. […]

The target of a further data set is T2, JAK1 (Homo sapiens, UniProt P23458).
T2 construct: made in house; host or cells: E. coli (BL21-derived, T7 phage display) or HEK-293
Briefly: JAK Family Selectivity Assay (JAK1 vs JAK2 binding affinity). The settings on record: selectivity over JAK2. As to the method: as §2

Data set [3] relates to JAK2-mediated pSTAT5 signaling in constitutively active essential thrombocytopenia cells carrying the V617F mutation. Briefly: SET2-pSTAT5 Cellular Assay. It is filed as cell-based. The following applies: Homo sapiens, SET-2, 4 hours. As to the method:
This assay measures inhibition of JAK2-mediated pSTAT5 signaling in constitutively active essential thrombocytopenia cells carrying the V617F mutation. Cells are harvested from a flask into cell culture medium, and the number of cells is counted. The cells are diluted with culture medium and 100 μL of cell suspension (50000/well) is added into each well of a 96-well cell culture plate. A solution of test compound is added to the assay plate. The plates are covered with a lid and placed in a 37° C. 5% CO2 incubator for 4 hours. After 4 hours, the cells are spun, and the cell pellets are re-suspended with 100 μL cold PBS. Then, the cells are spun again at 4° C. and 4000 rpm for 5 min. PBS is aspirated, and 25 μL lysis buffer (with protease and phosphatase inhibitor cocktail) is added to each cell pellet. The cell lysate is shaken at 4° C. for 20 min to fully lyse the cells. The cell lysate is spun at 4° C. and 4000 rpm for 15 min, and then the supernatant is transferred into a new plate and stored at −80° C. Meso-scale discovery (MSD) is used to analyze plates as follows: a standard MSD plate is coated with capture antibody in PBS (40 μL/well) and is incubated at 4° C. overnight with shaking. […] MSD reading buffer (1×) is added to the plates (150 μL/well), and they are diluted from 4× with water. […]

pIC50: −log10 of the molar value.

T1 sequence (P29597 whole entry): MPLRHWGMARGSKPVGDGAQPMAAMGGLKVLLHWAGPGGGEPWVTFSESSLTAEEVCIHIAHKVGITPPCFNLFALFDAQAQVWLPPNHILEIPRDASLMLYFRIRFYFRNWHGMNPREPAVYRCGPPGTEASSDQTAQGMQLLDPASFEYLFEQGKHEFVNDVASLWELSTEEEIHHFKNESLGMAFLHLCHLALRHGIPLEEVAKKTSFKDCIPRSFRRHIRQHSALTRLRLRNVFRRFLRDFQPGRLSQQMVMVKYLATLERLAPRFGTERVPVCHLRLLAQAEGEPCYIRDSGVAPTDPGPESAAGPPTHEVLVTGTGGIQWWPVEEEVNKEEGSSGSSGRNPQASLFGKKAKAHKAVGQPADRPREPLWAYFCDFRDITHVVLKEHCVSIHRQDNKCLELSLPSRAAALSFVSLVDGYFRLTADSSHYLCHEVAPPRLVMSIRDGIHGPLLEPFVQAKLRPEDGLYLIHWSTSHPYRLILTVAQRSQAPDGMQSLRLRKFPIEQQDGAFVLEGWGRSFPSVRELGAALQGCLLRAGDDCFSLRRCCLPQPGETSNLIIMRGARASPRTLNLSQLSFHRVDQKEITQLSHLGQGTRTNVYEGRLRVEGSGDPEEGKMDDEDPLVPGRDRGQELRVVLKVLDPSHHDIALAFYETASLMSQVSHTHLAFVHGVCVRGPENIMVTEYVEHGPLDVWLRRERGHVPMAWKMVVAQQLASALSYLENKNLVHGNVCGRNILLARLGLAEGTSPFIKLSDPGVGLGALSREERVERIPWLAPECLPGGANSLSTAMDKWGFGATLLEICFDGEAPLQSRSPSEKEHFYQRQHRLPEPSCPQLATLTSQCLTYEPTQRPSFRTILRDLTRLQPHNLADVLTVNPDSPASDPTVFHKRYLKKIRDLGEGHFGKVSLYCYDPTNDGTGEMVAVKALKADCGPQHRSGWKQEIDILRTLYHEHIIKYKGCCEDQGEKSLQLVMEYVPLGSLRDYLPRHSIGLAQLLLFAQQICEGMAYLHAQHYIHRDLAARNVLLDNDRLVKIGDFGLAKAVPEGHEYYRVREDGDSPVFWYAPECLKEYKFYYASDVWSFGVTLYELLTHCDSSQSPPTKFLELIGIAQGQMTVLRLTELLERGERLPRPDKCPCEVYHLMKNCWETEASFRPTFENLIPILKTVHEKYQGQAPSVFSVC
T2 sequence (P23458 whole entry): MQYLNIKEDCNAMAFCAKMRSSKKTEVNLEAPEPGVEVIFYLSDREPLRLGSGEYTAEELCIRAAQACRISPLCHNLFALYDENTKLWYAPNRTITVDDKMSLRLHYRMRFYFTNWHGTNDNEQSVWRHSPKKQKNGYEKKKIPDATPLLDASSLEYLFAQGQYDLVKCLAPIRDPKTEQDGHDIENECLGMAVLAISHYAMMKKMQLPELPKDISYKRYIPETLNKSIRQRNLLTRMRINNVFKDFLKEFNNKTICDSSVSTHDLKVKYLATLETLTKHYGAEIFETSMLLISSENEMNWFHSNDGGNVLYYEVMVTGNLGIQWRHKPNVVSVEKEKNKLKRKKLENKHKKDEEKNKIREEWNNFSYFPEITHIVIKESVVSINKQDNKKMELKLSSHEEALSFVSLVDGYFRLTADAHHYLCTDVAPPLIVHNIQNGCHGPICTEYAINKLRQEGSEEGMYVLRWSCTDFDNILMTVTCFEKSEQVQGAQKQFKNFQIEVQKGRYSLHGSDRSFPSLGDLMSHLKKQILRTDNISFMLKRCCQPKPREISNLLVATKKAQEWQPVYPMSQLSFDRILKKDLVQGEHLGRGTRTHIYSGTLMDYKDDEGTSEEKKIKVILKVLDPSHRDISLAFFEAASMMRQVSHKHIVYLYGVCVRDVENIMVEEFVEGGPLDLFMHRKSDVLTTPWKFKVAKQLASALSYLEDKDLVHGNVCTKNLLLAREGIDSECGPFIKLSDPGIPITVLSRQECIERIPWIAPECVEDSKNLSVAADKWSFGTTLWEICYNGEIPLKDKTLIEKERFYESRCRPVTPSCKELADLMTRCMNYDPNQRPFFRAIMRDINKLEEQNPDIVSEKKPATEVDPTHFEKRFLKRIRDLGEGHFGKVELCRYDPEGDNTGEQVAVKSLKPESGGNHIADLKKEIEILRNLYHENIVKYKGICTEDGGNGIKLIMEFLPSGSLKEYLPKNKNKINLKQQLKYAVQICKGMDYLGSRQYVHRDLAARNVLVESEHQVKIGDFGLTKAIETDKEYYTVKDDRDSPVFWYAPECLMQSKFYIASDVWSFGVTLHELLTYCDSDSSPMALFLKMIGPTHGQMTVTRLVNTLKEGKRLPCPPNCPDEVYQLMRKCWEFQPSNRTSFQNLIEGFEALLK

As to `CN(C)C(=O)Nc1cc(Oc2cnc3nc(Nc4cc(C(F)(F)F)cn(C)c4=O)n(C)c3c2C#N)ccn1` [Compound 1, 3-(4-((7-cyano-1-methyl-2-((1-methyl-2-oxo-5-(trifluoromethyl)-1,2-dihydropyridin-3-yl)amino)-1H-imidazo[4,5-b]pyridin-6-yl)oxy)pyridin-2-yl)-1,1-dimethylurea], the CLint scaled at 1 μM in data set [1] was 17 to 35 mL/min/kg; in data set [2], at most 6 mL/min/kg. Further, the “TYK2/JAK2 Kd/Kd ratio” value at TYK2 is “C (Kd/Kd ratio<300 and ≥100)”. For the same molecule, the “JAK1/JAK2 Kd/Kd ratio” value on JAK1 is “B (Kd/Kd ratio<1000 and ≥300)”. In data set [3], this molecule had a pIC50 of over 6.90.

As to `CCN1CCN(Cc2ccc(Nc3nc4ccc(Oc5ccnc(NC(C)=O)c5)cc4n3C)cc2C(F)(F)F)CC1` [Compound R-1, reference compound], the CLint scaled at 1 μM in data set [1] lay within 35 to 45 mL/min/kg; in data set [2], 12 to 20 mL/min/kg. For the same molecule, on TYK2, the “TYK2/JAK2 Kd/Kd ratio” value was “C (Kd/Kd ratio<300 and ≥100)”. In addition, the “JAK1/JAK2 Kd/Kd ratio” value at JAK1 is “C (Kd/Kd ratio<300 and ≥100)”. The molecule further gave a pIC50 in data set [3] of 6.00 to 6.70.
